# Test results from ChEMBL document CHEMBL4138236, “Trisubstituted barbiturates and thiobarbiturates: Synthesis and biological evaluation as xanthine oxidase inhibitors, antioxidants, antibacterial and anti-proliferative agents” (Eur J Med Chem, 2018).
# What was measured:
# [1] = Antioxidant activity assessed as DPPH radical scavenging activity at 30 uM after 20 mins by spectrophotometric method relative to control; assay type: functional
# [2] = Antioxidant activity assessed as DPPH radical scavenging activity at 30 uM after 60 mins by spectrophotometric method relative to control; assay type: functional
# MCF7 = assay: Antiproliferative activity against human MCF7 cells at 30 uM after 72 hrs by MTT assay relative to control; assay type: functional
# NHDF = assay: Antiproliferative activity against NHDF at 30 uM after 72 hrs by MTT assay relative to control; assay type: cell-based; settings: human
# Bacillus cereus = assay: Antibacterial activity against Bacillus cereus ATCC 1178 after 24 hrs by broth microdilution method; assay type: functional; settings: ATCC 1178, 24 h
# Staphylococcus aureus = assay: Antibacterial activity against Staphylococcus aureus ATCC 25923 after 24 hrs by broth microdilution method; assay type: functional; settings: ATCC 25923, 24 h
# Escherichia coli = assay: Antibacterial activity against Escherichia coli ATCC 25922 after 24 hrs by broth microdilution method; assay type: functional; settings: ATCC 25922, 24 h
# Klebsiella pneumoniae = assay: Antibacterial activity against Klebsiella pneumoniae ATCC 13883 after 24 hrs by broth microdilution method; assay type: functional; settings: ATCC 13883, 24 h
# Pseudomonas aeruginosa = assay: Antibacterial activity against Pseudomonas aeruginosa ATCC 27853 after 24 hrs by broth microdilution method; assay type: functional; settings: ATCC 27853, 24 h
# Salmonella typhimurium = assay: Antibacterial activity against Salmonella typhimurium ATCC 13311 after 24 hrs by broth microdilution method; assay type: functional, Salmonella enterica subsp. enterica serovar Typhimurium; settings: Salmonella enterica, ATCC 13311, 24 h
# Acinetobacter baumannii = assay: Antibacterial activity against Acinetobacter baumannii LMG 1025 after 24 hrs by broth microdilution method; assay type: functional; settings: LMG 1025, 24 h
SMILES,Activity [1],Activity [2],Activity (MCF7),Activity (NHDF),MIC (Bacillus cereus),MIC (Staphylococcus aureus),MIC (Escherichia coli),MIC (Klebsiella pneumoniae),MIC (Pseudomonas aeruginosa),MIC (Salmonella typhimurium),MIC (Acinetobacter baumannii)
CC(NNc1ccc([N+](=O)[O-])cc1[N+](=O)[O-])=C1C(=O)NC(=O)NC1=O,17.6%,18.1%,50.01%,79.47%,> 200 µM,> 200 µM,> 200 µM,> 200 µM,> 200 µM,> 200 µM,> 200 µM
O=C1C(=Cc2ccccc2[N+](=O)[O-])C(=O)N(c2ccccc2)C(=S)N1c1ccccc1,9%,11.3%,67.93%,77.56%,> 200 µM,> 200 µM,> 200 µM,> 200 µM,> 200 µM,> 200 µM,> 200 µM
NC(=S)NC=C1C(=O)NC(=S)NC1=O,3.37%,4.18%,111.15%,83.56%,> 200 µM,> 200 µM,> 200 µM,> 200 µM,> 200 µM,> 200 µM,> 200 µM
O=C1NC(=O)C(=Cc2ccccc2[N+](=O)[O-])C(=O)N1,-0.9%,-0.78%,58.88%,72.88%,> 200 µM,> 200 µM,> 200 µM,> 200 µM,> 200 µM,> 200 µM,> 200 µM
COc1ccc(C=C2C(=O)NC(=O)NC2=O)cc1,-0.97%,2.63%,78.75%,71.59%,> 200 µM,> 200 µM,> 200 µM,> 200 µM,> 200 µM,> 200 µM,> 200 µM
O=C1NC(=S)NC(=O)C1=CNc1ccccc1[N+](=O)[O-],-12.5%,-11.8%,80.23%,78.75%,> 200 µM,> 200 µM,> 200 µM,> 200 µM,> 200 µM,> 200 µM,> 200 µM
CN1C(=O)C(=Cc2ccccc2[N+](=O)[O-])C(=O)N(C)C1=O,-0.8%,-1.77%,54.64%,79.11%,> 200 µM,> 200 µM,> 200 µM,> 200 µM,> 200 µM,> 200 µM,> 200 µM
Cn1c([O-])c(C(C#N)c2ccc(Br)cc2)c(=O)n(C)c1=O.[Na+] (stereo not drawn),0.45%,1.2%,79.47%,80.09%,> 200 µM,> 200 µM,> 200 µM,> 200 µM,> 200 µM,> 200 µM,> 200 µM
N#CC(c1ccc(Br)cc1)c1c([O-])[nH]c(=S)[nH]c1=O.[Na+] (stereo not drawn),-9.22%,-8.33%,90.08%,89.93%,> 200 µM,> 200 µM,> 200 µM,> 200 µM,> 200 µM,> 200 µM,> 200 µM
Nc1ccccc1NC=C1C(=O)NC(=S)NC1=O,6.1%,17.3%,64.55%,70.13%,> 200 µM,> 200 µM,> 200 µM,> 200 µM,> 200 µM,> 200 µM,> 200 µM
NC(=O)NC=C1C(=O)NC(=S)NC1=O,5.26%,5.6%,104.66%,74.57%,> 200 µM,> 200 µM,> 200 µM,> 200 µM,> 200 µM,> 200 µM,> 200 µM
O=C(O)c1ccccc1NC=C1C(=O)N(c2ccccc2)C(=S)N(c2ccccc2)C1=O,-2.45%,-2.27%,43.11%,82.24%,> 200 µM,> 200 µM,> 200 µM,> 200 µM,> 200 µM,> 200 µM,> 200 µM
NC(S)=NC=C1C(=O)NC(=O)NC1=O,6.73%,16.6%,71.09%,78.05%,> 200 µM,> 200 µM,> 200 µM,> 200 µM,> 200 µM,> 200 µM,> 200 µM
CC(=O)C1C(=O)NC(=O)NC1=O,-6.91%,-7.28%,80.64%,124.84%,> 200 µM,> 200 µM,> 200 µM,> 200 µM,> 200 µM,> 200 µM,> 200 µM
CC(NNc1ccc([N+](=O)[O-])cc1[N+](=O)[O-])=C1C(=O)N(C)C(=O)N(C)C1=O,28%,26.7%,69.95%,73.63%,> 200 µM,> 200 µM,> 200 µM,> 200 µM,> 200 µM,> 200 µM,> 200 µM
CC(=O)C1C(=O)N(c2ccccc2)C(=S)N(c2ccccc2)C1=O,-8.55%,-7.43%,75.32%,89.63%,> 200 µM,> 200 µM,> 200 µM,> 200 µM,> 200 µM,> 200 µM,> 200 µM
O=C1NC(=O)C(=CNc2ccccc2C(=O)O)C(=O)N1,1.75%,1.98%,54.9%,84.62%,> 200 µM,> 200 µM,> 200 µM,> 200 µM,> 200 µM,> 200 µM,> 200 µM
CN1C(=O)C(=CNC(N)=S)C(=O)N(C)C1=O,20.3%,31.9%,59.18%,84.63%,> 200 µM,> 200 µM,> 200 µM,> 200 µM,> 200 µM,> 200 µM,> 200 µM
O=C1NC(=S)NC(=O)C1=CNc1cc([N+](=O)[O-])ccc1Cl,-4.31%,-3.68%,63.7%,70.28%,> 200 µM,> 200 µM,> 200 µM,> 200 µM,> 200 µM,> 200 µM,> 200 µM
O=C1NC(=S)NC(=O)C1=Cc1ccccc1[N+](=O)[O-],-2.2%,-0.23%,56.35%,81.31%,> 200 µM,> 200 µM,> 200 µM,> 200 µM,> 200 µM,> 200 µM,> 200 µM
NC(=O)NC=C1C(=O)NC(=O)NC1=O,-5.19%,-5.32%,55.71%,78.89%,> 200 µM,> 200 µM,> 200 µM,> 200 µM,> 200 µM,> 200 µM,> 200 µM
CN1C(=O)C(=CNc2ccccc2C(=O)O)C(=O)N(C)C1=O,3.37%,1.98%,50.34%,71.19%,> 200 µM,> 200 µM,> 200 µM,> 200 µM,> 200 µM,> 200 µM,> 200 µM
Oc1ncnc2[nH]ncc12 [ALLOPURINOL],-6.02%,-5.41%,,,,,,,,,
O=C1NC(=S)NC(=O)C1=CNc1ccccc1Cl,1.12%,0.92%,47.17%,65.67%,> 200 µM,> 200 µM,> 200 µM,> 200 µM,> 200 µM,> 200 µM,> 200 µM
CN1C(=O)C(=CNC(N)=O)C(=O)N(C)C1=O,2.1%,2.91%,97.13%,86.84%,> 200 µM,> 200 µM,> 200 µM,> 200 µM,> 200 µM,> 200 µM,> 200 µM
CC(=O)C1C(=O)N(C)C(=O)N(C)C1=O,-9.14%,-9.91%,84.11%,94.14%,> 200 µM,> 200 µM,> 200 µM,> 200 µM,> 200 µM,> 200 µM,> 200 µM
CC(NN)=C1C(=O)N(c2ccccc2)C(=S)N(c2ccccc2)C1=O,31.3%,41.9%,99.93%,86.68%,> 200 µM,> 200 µM,> 200 µM,> 200 µM,> 200 µM,> 200 µM,> 200 µM
